The values below come from US7579373B2, “Targeted bisplatinum polyamines as pro-drugs: selective release of platinum” (Virginia Commonwealth University, priority 2002, dated 2009).

Series [1] relates to L1210/0. The experiment in a line: Growth inhibition in L1210/0 cells. The conditions noted are these: 2 hours of exposure; mean (±SE), 3 experiments of 2 determinations. Type of series: cell-based, murine.
Text: To examine the pro-drug potential in a biological setting, a comparison of the pharmacological properties of the blocked polyamine compounds in L1210 murine leukemia cells was undertaken.
The subject of series [2] is L1210/DDP. Put plainly: Growth inhibition in L1210/DDP cells. Type of series: cell-based, murine. The conditions noted are these: for IC50: 2 hours of exposure, mean (±SE), 3 experiments of 2 determinations; for RF, resistance factor: IC50 L1210/DDP / IC50 L1210/0, 2 hours of exposure.
In series [3] the test system is L1210/0. Put plainly: Cellular accumulation in L1210/0 cells. The class given is cell-based, murine. The conditions noted are these: 2 hours of exposure; (±SE), 3 experiments of 2 determinations. The method, then:
(§1) Cellular accumulation. The cellular accumulation assays followed published procedures (7). Briefly, cells were resuspended at 10^7/mL in media supplemented with […]. Platinum complexes were added, and samples were incubated at 37° C. in 5% CO2. At 0 and 2 hours aliquots were removed for determination of cell concentrations and for measurement of platinum content. For the latter, aliquots were washed three times in cold phosphate buffered saline, resuspended in 1% Triton-X in water, and sonicated. Platinum content was measured by flameless atomic absorption spectroscopy.
(§2) The cellular accumulation of the blocked Pt compound 2 was also investigated. […] Based solely on charge considerations the BOC-spermidine with a charge of 2+ should have cellular uptake similar to 1,1/t,t (n=6). The enhanced uptake could be explained by some hydrolysis in media or plasma producing small amounts of the protonated 1,1/t,t-spermidine. Considering the potency of polynuclear-polyamine compounds, a small percentage of hydrolysis could have a significant impact on in vivo activity.

For series [4], the system named is L1210/DDP. Put plainly: Cellular accumulation in L1210/DDP cells. The class given is cell-based, murine. The settings on record: 2 hours of exposure; (±SE), 3 experiments of 2 determinations. The method, then: as §1, §2
Another series deals with 41M. The experiment in a line: SRB growth inhibition assay, 41M. Type of series: cell-based, human. The settings on record: 96 h exposure. The method, then: (§3) Cell culture. A2780, A2780/CDDP, CH1, CH1/CDDP, 41M and 41M/CDDP cell lines were used in this study and maintained according to published procedures. (8,9).
(§4) Growth inhibition assay. The Sulforhodamine B (SRB) assay was used to determine growth inhibition potency of platinum drugs (10). The cells were seeded in 96-well microtitre plates at 3-8×10^3 cells/well in 160 μL growth medium and allowed to attach overnight. Platinum agents were then added after serial dilution in quadruplicate wells and exposed to cells for 2 or 96 hours. After the 2 hours drug incubations were complete, plates were washed free of drug with phosphate-buffered saline (PBS) and then refed with normal growth medium for a further 94 hours. Quantitation of cell growth in treated and control wells was then assessed using 0.4% SRB dissolved in 1% acetic acid. IC50 values were determined graphically.
(§5) Of special interest is the remarkably low value for 4 (Fmoc) in A2780 cells.

The subject of another series is A2780. The experiment in a line: SRB growth inhibition assay, A2780. The settings on record: 96 h exposure. The class given is cell-based, human. The method, then: as §3, §4, §5
For another series, the system named is CH1. Put plainly: SRB growth inhibition assay, CH1. Type of series: cell-based, human. The conditions noted are these: 96 h exposure. The method, then:
as §3, §4, §5

A further series has as its system CH1/CDDP. Put plainly: SRB growth inhibition assay, CH1/CDDP. The class given is cell-based, human. The conditions noted are these: for IC50: 96 h exposure; for RF CH1/CDDP: IC50 resistant/IC50 parent line, 96 h. The method, then:
as §3
as §4, with “graphically. […]” for “graphically.”

The test system of another series is A2780/CDDP. Put plainly: SRB growth inhibition assay, A2780/CDDP. The conditions noted are these: for IC50: 96 h exposure; for RF A2780/CDDP: IC50 resistant/IC50 parent line, 96 h. Type of series: cell-based, human. The method, then: as §3
as §4, with “graphically. […]” for “graphically.”

Series [5] is classed as physicochemical. The conditions noted are these: for Rate constant for the deprotection: first order; for % 1 (percentage of 1 of the overall integration in the chromatogram after incubation): uncorrected. The method, then:
Analyses of the products and hydrolysis studies were carried out on an analytical Beckman System Gold Nouveau HPLC instrument with UV detection at 215 nm. A Lichrosphere RP-8 column (5 μm particle size, dimensions 250 mm×4 mm) was used with a solvent gradient from water/methanol 97:3 (0.05 M NaClO4, 1% NaCl) to water/methanol 70:30 (0.05 M NaClO4, 2% NaCl).
Hydrolysis Study. For the hydrolysis experiments 10^−3 mMol complex were dissolved in 1 mL of nanopure water. The pH of the solutions was adjusted by addition of HNO3 (0.1 M, 0.01 M) and NaOH (0.1 M, 0.01 M), respectively. The samples were incubated in a water bath at 37° C. and aliquots of 20 μL were taken from the bulk solution for HPLC analysis. The pH values of the samples were controlled in regular intervals and readjusted if necessary.
The hydrolysis of the protective groups of compounds 2-4 was monitored at 37° C. at various pH values. […] In addition, the chromatogram of 2 contained a peak of a minor impurity (ca 0.4%) which remained unchanged during the timecourse of the reaction. Deprotection of the secondary amino function leads to the appearance of a signal for the unprotected spermidine complex 1 that, as a consequence of the increased cationic charge, is well separated from the signal of the N4 blocked precursor. The area percentage of the integrated signal of the unprotected species is taken as an estimate for the amount of hydrolysis at a given timepoint. To allow for a more accurate quantitative comparison of results, the extinction coefficients for compounds 1-4 were determined at 215 nm (Table 1). The integral values of the blocked compounds have been corrected for the higher absorbance of these species at the observed wavelength compared to the unprotected species 1. Table 2 provides a summary of the amount of hydrolysis for all samples before and after the correction. Rate constants were calculated based on the corrected integral values.
The hydrolysis of the blocking groups of on the N4 position of compounds 5-7 was monitored at 37° C. over a pH range of 6-8.
The amount of 1,1/t,t-spermidine released over time is depicted in FIG. 8. No other products were detected, trifluoroacetate, originating from the hydrolysis reaction, is not retained on the column under the present conditions and coelutes with the other anions (Cl^− from 5, NO3^− from pH adjustment). In order to obtain rate constants for the conversion of 7 to 1,1/t,t-spermidine, the integral values of the chromatograms were corrected for the different absorption of the species at the observed wavelength (ε215: 1, 3.64·10^3; 5, 7.62·10^3; 6, 10.4·10^3; 7, 9.46·10^3 L.Mol^−1 .cm^−1). Concentrations were calculated based on the assumption that the sum of the concentrations of both species at every time point equals the original concentration of 7 at the start of the experiment. First order rate constants were obtained using the program MicroMath Scientist Version 2.01. The results are summarized in Table 3 and compared with values obtained for BOC and Fmoc protected spermidine complexes.

Setting [6] is: pH 5, 37° C., time 42 d (2), 30 d (3), 41 d (4).
[7] abbreviates: pH 6, 37° C., time 42 d (2), 42 d (3), 41 d (4).
Setting [8] is: pH 7, 37° C., time 25 d (2), 41 d (4).

Like-named read-outs stand apart in the source and are kept apart here.

In general, IC50 refers to the concentration that inhibits the measured activity by half. A higher IC50 goes with weaker potency. On to `N.N.N.N.NCCCCCCN.[Cl][Pt+].[Cl][Pt+]` [1,1/tt, [trans-{PtCl(NH3)2}2H2N(CH2)6NH2]^2+, reference compound], for which half-maximal inhibition with L1210/0 [1] (IC50) required 3.7 µM. In the series on L1210/DDP [2], the IC50 is 16 µM and the “RF, resistance factor” value was 4.3. Further, the “Accumulation L1210/0” value with L1210/0 [3] was 3.8 (0.70) attamol Pt complex/cell. Moreover, the “Accumulation L1210/DDP” value in the series on L1210/DDP [4] is 0.67 (0.21) attamol Pt complex/cell.

Consider `CC(C)(C)OC(=O)N(CCCN)CCCCN.N.N.N.N.[Cl-].[Cl-].[Cl][Pt+].[Cl][Pt+]` [Compound 2, [{trans-Pt(NH3)2Cl}2——N^4-BOC-spermidine-N^1,N^8]Cl2], for which the IC50 worked out at 17 µM with 41M; 2.1 µM in the series with A2780; 1.25 µM in the series with L1210/0 [1]; 4.6 µM in the series with L1210/DDP [2]; 8 µM in the series with CH1; 11 µM with CH1/CDDP. In the series on A2780/CDDP, this compound showed an IC50 of 19 µM. Also, the “RF, resistance factor” value in the series on L1210/DDP [2] turned out to be 3.7. Also, the “RF CH1/CDDP” value in the series on CH1/CDDP is on record as 1.4. Further, in the series on L1210/0 [3], the “Accumulation L1210/0” value was 5.0 (0.63) attamol Pt complex/cell. For the same compound, in the series with L1210/DDP [4], the “Accumulation L1210/DDP” value is 4.8 (0.75) attamol Pt complex/cell. Besides, the “RF A2780/CDDP” value with A2780/CDDP came to 9.0. Moreover, the figures for the “% 1, corrected for the different extinction coefficients at 215 nm” value in [5] (setting [6]), in [5] (setting [7]) and in [5] (setting [8]) were “[15.1] %”, “[13.8] %” and “[6.6] %”, respectively. Moreover, the “Rate constant for the deprotection” value is given as 4.65 (±0.04) · 10^−8 s^−1 in [5] (pH 5, 37° C.); 4.29 (±0.05) · 10^−8 s^−1 in series [5] (pH 6, 37° C.); 3.51 (±0.05) · 10^−8 s^−1 in [5] (pH 6.6, 37° C.); 3.12 (±0.04) · 10^−8 s^−1 in series [5] (pH 7, 37° C.).

Regarding `N.N.N.N.NCCCCN(CCCN)C(=O)OCc1ccccc1.[Cl-].[Cl-].[Cl][Pt+].[Cl][Pt+]` [Compound 3, [{trans-Pt(NH3)2Cl}2— —N^4-CBz-spermidine-N^1,N^8]Cl2], the IC50 in the series with 41M was over 100 µM; in the series with A2780, 24 µM; in the series on CH1, 25 µM; in the series on CH1/CDDP it was 43 µM; in the series on A2780/CDDP, 100 µM. In the series with CH1/CDDP, the “RF CH1/CDDP” value came to 1.7. Besides, the “RF A2780/CDDP” value in the series with A2780/CDDP is 4.2. Further, the “% 1, corrected for the different extinction coefficients at 215 nm” value in series [5] (setting [6]) was “[0.13] %”; in [5] (setting [7]), “[0.12] %”. Moreover, the “% 1 (percentage of 1 of the overall integration in the chromatogram after incubation)” value in [5] (setting [6]) and in series [5] (setting [7]) was 0.05% in each case. In addition, in series [5] (pH 5 and 6, 37° C., over the complete timecourse), the “amount of 1 detected in the samples” value was “below 0.1%”.

As for `N.N.N.N.NCCCCN(CCCN)C(=O)OCC1c2ccccc2-c2ccccc21.[Cl-].[Cl-].[Cl][Pt+].[Cl][Pt+]` [Compound 4, [{trans-Pt(NH3)2Cl}2——N^4-Fmoc-spermidine-N^1,N^8]Cl2], the IC50 in the series on 41M was over 100 µM; in the series on A2780 it was 0.84 µM; in the series on CH1 it was 46 µM; with CH1/CDDP, 62 µM; in the series with A2780/CDDP, 65 µM. For the same compound, the “RF CH1/CDDP” value in the series on CH1/CDDP was 1.3. Further, in the series with A2780/CDDP, the “RF A2780/CDDP” value turned out to be 77. The “% 1, corrected for the different extinction coefficients at 215 nm” value is “[1.0] %” in [5] (setting [6]); “[3.0] %” in series [5] (setting [7]); “[19.6] %” in [5] (setting [8]); “[35.2] %” in series [5] (pH 8, 37° C., time 30 d (4)). The “Rate constant for the deprotection” value in series [5] (pH 5, 37° C.) was 3.99 (±0.96) · 10^−9 s^−1; in series [5] (pH 6, 37° C.), 9.74 (±0.88) · 10^−9 s^−1; in series [5] (pH 7, 37° C.) it was 6.12 (±0.09) · 10^−8 s^−1; in series [5] (pH 8, 37° C.), 1.44 (±0.07) · 10^−7 s^−1. For the same compound, the “% 1 (percentage of 1 of the overall integration in the chromatogram after incubation)” value in [5] (setting [6]) is 0.14%; in series [5] (setting [7]) it was 0.45%; in series [5] (setting [8]) it was 3.4%; in [5] (pH 8, 37° C., time 30 d (4)), 7.3%. Further, the “hydrolyzed species observed (HPLC profile)” value in [5] (pH 5 and 6, 37° C.) was “only minor amounts”. In series [5] (pH 7 and 8, 37° C.), the “free spermidine complex released (HPLC profile)” value is listed as “considerable amounts”.

For `N.N.[Cl][Pt][Cl]` [cisplatin, reference compound], the IC50 in the series on 41M stood at 2.3 µM; in the series on A2780, 1.6 µM; in the series with L1210/0 [1] it was 1.3 µM; with L1210/DDP [2] it was 59 µM; with CH1, 0.34 µM; with CH1/CDDP it was 1.1 µM. Further, inhibition with A2780/CDDP was half-maximal at 12 µM (IC50). Besides, the “RF, resistance factor” value in the series on L1210/DDP [2] came to 44. Further, the “RF CH1/CDDP” value with CH1/CDDP amounted to 3.2. Further, the “Accumulation L1210/0” value in the series on L1210/0 [3] is 5.0 (0.89) attamol Pt complex/cell. Moreover, the “Accumulation L1210/DDP” value with L1210/DDP [4] is reported as 1.5 (0.76^ attamol Pt complex/cell. Further, the “RF A2780/CDDP” value in the series on A2780/CDDP came out at 7.5.
